Laboratory results: ChEMBL document CHEMBL1154288, “The discovery and unique pharmacological profile of RO4938581 and RO4882224 as potent and selective GABAA alpha5 inverse agonists for the treatment of cognitive dysfunction” (Bioorg Med Chem Lett, 2009)
In brackets after ≈: the same amount, converted by molar mass.

Assays:
[1] = target: GABA A receptor alpha-5/beta-3/gamma-2 (Rattus norvegicus) (UniProt P18508+P19969+P63079); assay: Inverse agonist activity at rat GABA alpha-5-beta-3-gamma-2 receptor expressed in HEK293 cells by electrophysiology assay relative to GABA; assay type: functional, cell-based
[2] = target: T1, GABA-A receptor; alpha-5/beta-3/gamma-2 (Homo sapiens, UniProt P18507+P28472+P31644); assay: Displacement of [3H]Flumazenil from human GABA alpha-5-beta-3-gamma-2 receptor expressed in insect SF9 cells
T1 sequence (P18507 whole entry): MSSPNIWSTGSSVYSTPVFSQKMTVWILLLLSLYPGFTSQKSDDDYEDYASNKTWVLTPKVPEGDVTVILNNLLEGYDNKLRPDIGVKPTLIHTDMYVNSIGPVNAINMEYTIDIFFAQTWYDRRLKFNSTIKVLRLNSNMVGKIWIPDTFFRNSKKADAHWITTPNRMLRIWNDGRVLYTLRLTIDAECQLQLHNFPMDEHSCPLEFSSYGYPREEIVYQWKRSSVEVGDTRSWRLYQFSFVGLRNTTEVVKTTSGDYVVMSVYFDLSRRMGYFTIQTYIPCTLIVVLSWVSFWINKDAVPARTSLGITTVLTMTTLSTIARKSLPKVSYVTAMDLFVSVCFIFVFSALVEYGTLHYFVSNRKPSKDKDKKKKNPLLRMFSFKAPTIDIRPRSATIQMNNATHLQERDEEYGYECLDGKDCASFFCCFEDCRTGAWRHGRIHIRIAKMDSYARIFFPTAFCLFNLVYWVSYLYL
T1 sequence (P28472 whole entry): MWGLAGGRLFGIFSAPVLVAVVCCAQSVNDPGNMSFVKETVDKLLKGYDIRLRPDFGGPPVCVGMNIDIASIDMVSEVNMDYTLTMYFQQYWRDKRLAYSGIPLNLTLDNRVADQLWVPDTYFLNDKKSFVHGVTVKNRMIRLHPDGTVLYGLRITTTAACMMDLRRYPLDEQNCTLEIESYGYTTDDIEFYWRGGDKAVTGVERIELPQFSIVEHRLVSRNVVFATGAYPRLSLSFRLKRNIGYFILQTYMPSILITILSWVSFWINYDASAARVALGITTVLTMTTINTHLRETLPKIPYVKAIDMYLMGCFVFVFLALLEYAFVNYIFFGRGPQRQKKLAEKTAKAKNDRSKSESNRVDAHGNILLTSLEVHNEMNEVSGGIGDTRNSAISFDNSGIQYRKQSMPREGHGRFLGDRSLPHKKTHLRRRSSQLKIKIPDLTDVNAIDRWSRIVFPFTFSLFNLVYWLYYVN
T1 sequence (P31644 whole entry): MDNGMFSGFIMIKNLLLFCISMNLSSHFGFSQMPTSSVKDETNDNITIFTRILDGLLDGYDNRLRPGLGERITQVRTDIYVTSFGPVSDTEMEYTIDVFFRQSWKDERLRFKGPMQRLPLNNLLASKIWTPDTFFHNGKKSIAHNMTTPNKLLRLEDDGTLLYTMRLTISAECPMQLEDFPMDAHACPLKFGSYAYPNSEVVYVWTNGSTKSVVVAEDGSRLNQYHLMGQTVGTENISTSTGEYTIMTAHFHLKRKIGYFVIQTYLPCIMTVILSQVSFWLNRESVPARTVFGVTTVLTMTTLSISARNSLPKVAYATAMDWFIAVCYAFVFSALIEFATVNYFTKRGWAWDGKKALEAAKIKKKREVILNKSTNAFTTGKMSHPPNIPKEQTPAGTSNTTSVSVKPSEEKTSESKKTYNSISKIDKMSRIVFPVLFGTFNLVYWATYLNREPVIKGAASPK

[3] = Selectivity ratio of Ki for cloned human GABA alpha-2-beta-3-gamma-2 receptor expressed in insect SF9 cells to Ki for cloned human GABA alpha-5-beta-3-gamma-2 receptor expressed in insect SF9 cells
[4] = Selectivity ratio of Ki for cloned human GABA alpha-1-beta-3-gamma-2 receptor expressed in insect SF9 cells to Ki for cloned human GABA alpha-5-beta-3-gamma-2 receptor expressed in insect SF9 cells
[5] = Selectivity ratio of Ki for cloned human GABA alpha-3-beta-3-gamma-2 receptor expressed in insect SF9 cells to Ki for cloned human GABA alpha-5-beta-3-gamma-2 receptor expressed in insect SF9 cells
[6] = target: T2, GABA-A receptor; alpha-1/beta-3/gamma-2 (Homo sapiens, UniProt P14867+P18507+P28472); assay: Displacement of [3H]Flumazenil from cloned human GABA alpha-1-beta-3-gamma-2 receptor expressed in HEK293 cells; assay type: cell-based
T2 sequence (P14867 whole entry): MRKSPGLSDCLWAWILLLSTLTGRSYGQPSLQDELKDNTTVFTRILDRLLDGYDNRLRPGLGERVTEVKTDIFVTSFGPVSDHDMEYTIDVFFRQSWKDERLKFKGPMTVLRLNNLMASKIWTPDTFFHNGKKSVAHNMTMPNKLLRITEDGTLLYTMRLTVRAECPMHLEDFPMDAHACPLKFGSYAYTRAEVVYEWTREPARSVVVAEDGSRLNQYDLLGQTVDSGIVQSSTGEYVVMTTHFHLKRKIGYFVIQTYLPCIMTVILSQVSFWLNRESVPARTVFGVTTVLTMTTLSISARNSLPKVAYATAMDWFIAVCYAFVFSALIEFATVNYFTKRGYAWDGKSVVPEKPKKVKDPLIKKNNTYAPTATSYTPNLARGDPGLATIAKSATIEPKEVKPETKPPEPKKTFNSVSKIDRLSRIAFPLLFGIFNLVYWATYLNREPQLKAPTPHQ
T2 sequence (P18507 whole entry): T1 sequence (P18507 whole entry)
T2 sequence (P28472 whole entry): T1 sequence (P28472 whole entry)

[7] = target: GABA-A receptor; alpha-1/beta-2/gamma-2 (Rattus norvegicus) (UniProt P18508+P62813+P63138); assay: Inverse agonist activity at rat GABA alpha-1-beta-3-gamma-2 receptor expressed in HEK293 cells by electrophysiology assay relative to GABA; assay type: functional, cell-based
[8] = Half life in rat; assay type: ADME, organism-based; conditions: in vivo
[9] = Volume of distribution at steady state in rat; assay type: ADME, organism-based; conditions: in vivo, read-out: Vdss
[10] = target: T3, GABA-A receptor; alpha-3/beta-3/gamma-2 (Homo sapiens, UniProt P18507+P28472+P34903); assay: Displacement of [3H]Flumazenil from cloned human GABA alpha-3-beta-3-gamma-2 receptor expressed in HEK293 cells; assay type: cell-based
T3 sequence (P18507 whole entry): T1 sequence (P18507 whole entry)
T3 sequence (P28472 whole entry): T1 sequence (P28472 whole entry)
T3 sequence (P34903 whole entry): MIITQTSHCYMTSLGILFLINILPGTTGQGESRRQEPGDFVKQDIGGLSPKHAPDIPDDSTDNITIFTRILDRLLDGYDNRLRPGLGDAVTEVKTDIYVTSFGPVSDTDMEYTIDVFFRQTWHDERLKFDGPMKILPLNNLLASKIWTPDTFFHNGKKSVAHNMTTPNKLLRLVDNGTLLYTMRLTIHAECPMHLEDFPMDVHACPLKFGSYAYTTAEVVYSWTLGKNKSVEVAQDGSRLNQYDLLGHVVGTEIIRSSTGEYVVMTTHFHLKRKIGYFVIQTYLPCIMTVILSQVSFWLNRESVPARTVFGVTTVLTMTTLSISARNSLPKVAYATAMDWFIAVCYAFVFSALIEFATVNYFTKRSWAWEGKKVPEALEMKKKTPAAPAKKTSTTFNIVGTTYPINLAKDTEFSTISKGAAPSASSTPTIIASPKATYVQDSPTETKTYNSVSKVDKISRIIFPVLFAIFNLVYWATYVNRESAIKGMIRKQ

[11] = target: Gamma-aminobutyric acid receptor subunit alpha-3 (Rattus norvegicus) (UniProt P20236); assay: Inverse agonist activity at rat GABA alpha-3-beta-3-gamma-2 receptor expressed in HEK293 cells by electrophysiology assay relative to GABA; assay type: functional, cell-based
Sequence of Gamma-aminobutyric acid receptor subunit alpha-3 (Rattus norvegicus) (P20236 whole entry): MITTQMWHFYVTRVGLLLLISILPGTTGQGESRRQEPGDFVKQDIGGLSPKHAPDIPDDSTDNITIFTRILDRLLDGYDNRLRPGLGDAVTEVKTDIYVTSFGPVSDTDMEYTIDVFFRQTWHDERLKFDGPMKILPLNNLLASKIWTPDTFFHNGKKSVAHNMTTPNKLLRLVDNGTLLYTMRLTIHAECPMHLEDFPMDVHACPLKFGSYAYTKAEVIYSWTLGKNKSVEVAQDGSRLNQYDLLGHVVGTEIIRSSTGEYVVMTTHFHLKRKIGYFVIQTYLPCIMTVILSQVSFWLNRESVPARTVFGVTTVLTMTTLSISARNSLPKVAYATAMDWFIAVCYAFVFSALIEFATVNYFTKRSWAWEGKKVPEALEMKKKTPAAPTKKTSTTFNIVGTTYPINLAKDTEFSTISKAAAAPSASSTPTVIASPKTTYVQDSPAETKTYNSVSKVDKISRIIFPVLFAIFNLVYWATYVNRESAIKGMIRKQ

[12] = Solubility by lypophlisation solubility assay; assay type: physicochemical
[13] = target: GABA A receptor alpha-2/beta-2/gamma-2 (Rattus norvegicus) (UniProt P18508+P23576+P63138); assay: Inverse agonist activity at rat GABA alpha-2-beta-3-gamma-2 receptor expressed in HEK293 cells by electrophysiology assay relative to GABA; assay type: functional, cell-based
[14] = Lipophilicity, log D at pH 7.4; assay type: physicochemical; conditions: buffer
[15] = Clearance in rat; assay type: ADME, organism-based; conditions: in vivo
[16] = Permeability by PAMPA; assay type: ADME; conditions: read-out: permeability
[17] = target: T1, GABA-A receptor; alpha-5/beta-3/gamma-2; assay: Displacement of [3H]Flumazenil from cloned human GABA alpha-5-beta-3-gamma-2 receptor expressed in HEK293 cells; assay type: cell-based
[18] = Oral bioavailability in rat; assay type: ADME, organism-based; conditions: in vivo
[19] = target: T4, GABA-A receptor; alpha-2/beta-3/gamma-2 (Homo sapiens, UniProt P18507+P28472+P47869); assay: Displacement of [3H]Flumazenil from cloned human GABA alpha-2-beta-3-gamma-2 receptor expressed in HEK293 cells; assay type: cell-based
T4 sequence (P18507 whole entry): T1 sequence (P18507 whole entry)
T4 sequence (P28472 whole entry): T1 sequence (P28472 whole entry)
T4 sequence (P47869 whole entry): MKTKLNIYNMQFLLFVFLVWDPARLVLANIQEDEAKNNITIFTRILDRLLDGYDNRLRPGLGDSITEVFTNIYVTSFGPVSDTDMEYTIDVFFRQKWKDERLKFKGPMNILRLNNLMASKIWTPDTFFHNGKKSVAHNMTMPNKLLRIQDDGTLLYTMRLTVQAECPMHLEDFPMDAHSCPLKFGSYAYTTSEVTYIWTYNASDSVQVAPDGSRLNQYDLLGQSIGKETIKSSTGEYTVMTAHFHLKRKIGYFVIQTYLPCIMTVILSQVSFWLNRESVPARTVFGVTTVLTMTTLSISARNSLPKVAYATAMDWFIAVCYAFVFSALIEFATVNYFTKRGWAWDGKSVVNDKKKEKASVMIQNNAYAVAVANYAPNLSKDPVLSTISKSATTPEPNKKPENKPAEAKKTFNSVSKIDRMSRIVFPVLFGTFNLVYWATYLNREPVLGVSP

Row | SMILES | Efficacy [1] [%] | Ki [2] [nM] | Ratio Ki [3] | Ratio Ki [4] | Ratio Ki [5] | also measured
1 | Fc1ccc2c(c1)-c1ncnn1Cc1cncn1-2 | -45 | 10 | 4 | 12 | 3 | 
2 | FC(F)c1ncn2c1Cn1ncnc1-c1cc(Cl)ccc1-2 | -18 |  |  |  |  | Ki [6]: 53 nM; Efficacy [7]: -20%; half-life [8]: 54 min; Vd [9]: 0.3 L/kg; Ki [10]: 48 nM; Efficacy [11]: 21%; solubility [12]: 58 µg/mL (≈ 189 µM); Efficacy [13]: 2%; logD [14]: 2; clearance [15]: 3.8 mL/min/kg; Papp [16]: 6.3 ×10⁻⁶ cm/s; Ki [17]: 5.6 nM; bioavailability [18]: 87%; Ki [19]: 81 nM
3 | Fc1ccc2c(c1)-c1ncnn1Cc1c(Cl)ncn1-2 | -33 | 0.3 | 4 | 3 | 3 | 
4 | CCOC(=O)c1ncn2c1Cn1ncnc1-c1cc(F)ccc1-2 | -16 | 0.2 |  | 1 | 1 | Ratio [3]: 1
5 | CCC(=O)c1ncn2c1Cn1ncnc1-c1cc(Cl)ccc1-2 | -38 | 2.6 | 11 | 12 | 8 | 
6 | N#Cc1ncn2c1Cn1ncnc1-c1cc(Cl)ccc1-2 | -31 | 6.4 | 11 | 7 | 9 | 
